In one assay the test system is PTPN1 F191V. The assay is described as follows: Inhibitor sensitivity of point mutant PTPN1 F191V. The format is biochemical, human. As to conditions: at 10 µM. An excerpt: Figure 5 Structural basis for PTPRZ inhibition of NAZ2329. (A) An enlarged view of the X-ray structure of human PTPRZ1-D1 complexed with NAZ2329 (PDB ID: 5H08) (left), X-ray structure of the apo (open) form of PTPRZ1-D1 (PDB ID: 5AWX, ref. [6], middle) and a computer-modeled structure of the closed form of PTPRZ1-D1 complexed with a competitive inhibitor, SCB4380 (ref. [6], right), are shown. PTPRZ1-D1 is shown as a gray surface representation, in which Cys1933 at the active site and Val-1911 at the bottom of the allosteric pocket are indicated in red and yellow, respectively. Inhibitors are colored according to the atomic species in a stick figure representation as follows: oxygen (red), nitrogen (blue), sulfur (yellow), and carbon (green). The bottom figures show the conformation of the WPD loop (orange) as cartoon representations, in which Asp1901 and Cys1933 are indicated by orange and red spheres, respectively. Side chains of Arg1939 at the active site, Met1902 in the WPD loop, and Val-1911 at the bottom of the allosteric binding area are also shown in the stick representation. (B) LigPlot representation of the NAZ2329 interaction with PTPRZ1-D1. The predicted hydrogen bonds (broken black lines) and residues (red spoked arcs) involved in the hydrophobic interaction are shown. […]

Assay [1] deals with paxillin at Tyr-118 in C6 cells. The assay is described as follows: Paxillin Tyr-118 phosphorylation in C6 cells (Western blot). In kind it is cell-based, rat. To be noted: 25 µM. How it is done: Figure 7 Cellular effects of NAZ2329 on the malignant phenotypes of C6 cells. (A) Phosphorylation of paxillin at Tyr-118. C6 cells were incubated with NAZ2329 for the indicated periods. Immunoprecipitated paxillin was analyzed by Western blotting using anti-pY118-paxillin and anti-paxillin. Blots are representative of five independent cultures. […] (B) Cell proliferation assay. C6 cells were incubated for 48 h with NAZ2329 in normal medium containing 2% FBS. […] (C) Boyden chamber assay. Cells were allowed to migrate for 3 h. DAPI-stained nuclei are shown before (total) and after (migrated) the removal of cells remaining in the top chamber. Scale bars, 100 µm. […] (D,E) Sphere formation (D) and SOX2 expression (E). C6 cells were cultured in CSC medium for 7 days with indicated concentrations of NAZ2329. Images are representative of five independent cultures. Scale bars, 100 µm. […] (F) Self-renewal of C6 spheres. […]
After precleaning the extracts with Protein G Sepharose (#17-0618-02, GE Healthcare), samples were subjected to immunoprecipitation with Protein G Sepharose coated with a mouse anti-paxillin antibody. […] The binding of these antibodies was detected with Luminata Forte Western HRP substrate (Millipore) and imaged with a chemiluminescent image analyzer system (EZ-Caputure MG, Atto Corp).
For orientation: A western blot detects proteins with antibodies after separation by electrophoresis.

Consider `CCOc1ccc(C(F)(F)F)cc1CSc1ccsc1C(=O)NS(=O)(=O)c1ccccc1` [NAZ2329], for which the “change in sensitivity of F191V mutant vs wild-type PTPN1 (more sensitive)” value in the assay with PTPN1 F191V was ~ 2 fold. The “phosphorylation level of paxillin at Tyr-118” value in assay [1] is “significantly enhanced the phosphorylation level”.

These data come from paper PMC5514153, “Targeting PTPRZ inhibits stem cell-like properties and tumorigenicity in glioblastoma cells” (Scientific Reports, 2017).
